Test results as given in patent US20230105108A1, “COMPOUNDS FOR THE TREATMENT OF BACTERIAL INFECTIONS AND POTENTIATION OF ANTIBIOTICS” (GEORGIA STATE UNIVERSITY RESEARCH FOUNDATION, INC., priority 2019, published 2023).
pIC50: −log10 of the molar value. Structures can show the parent of a compound that is named as a salt. Where two headings read alike, the source gives them in different places.

Assays:
[1] = test system: H9c2 (ATCC CRL-1446) cells; experiment: Cytotoxicity in H9c2 cells (CCK-8); assay type: cell-based; settings: H9c2 cell line
Outline: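 H9c2 cells were grown in DMEM with 10% FBS, seeded the day before, and exposed to a range of di-amidine concentrations for 24 h at 37 °C, 5% CO2. Viability was read by CCK-8 after 3 h at 37 °C as absorbance at 450 nm.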

E. coli (ATCC 25922) = experiment: MIC determination, sensitization fold and FIC index on E. coli; assay type: cell-based; settings: for MIC: Escherichia coli; for MIC of AB with MD-124: MD-124 concentration 5 μg/ml
Outline: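 MICs read by OD600 as >90% growth inhibition after two-fold rifampicin dilutions, 5×10^5 CFU/ml E. coli, 24 h, 37 °C, shaken, cation-adjusted Mueller Hinton II broth.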

B. subtilis = experiment: MIC determination and sensitization fold on B. subtilis; assay type: cell-based; settings: for Sensitization fold: erythromycin; for sensitization fold with 5.5 μg/ml DB2560: B. subtilis towards the antibiotic
M. smegmatis = experiment: MIC on mycobacteria; assay type: cell-based, Mycobacterium smegmatis; settings: Mycolicibacterium smegmatis, read-out: MIC on mycobacteria
[2] = test system: A. baumannii (ATCC 17978); experiment: MIC, sensitization fold and FIC index on A. baumannii; assay type: cell-based; settings: for Sensitization fold with 5 μg/ml MD-124: A. baumannii towards the antibiotic
K. pneumoniae (43816) = experiment: MIC, sensitization fold and FIC index on K. pneumoniae; assay type: cell-based; settings: for Sensitization fold with 5 μg/ml MD-124: K. pneumoniae towards the antibiotic
[3] = test system: NDM-1 expressing E. coli strain; experiment: microbe, parasite or virus in culture; assay type: cell-based; settings: for Sensitization fold with 5 μg/ml MD-124: NDM-1 expressing E. coli towards the antibiotic
E. coli [4] = experiment: Ex vivo skin burn infection model, wild-type E. coli; settings: human skin burn, hypromellose gel, 24 hours; 4‰ (w/w) novobiocin, 1.5‰ MD-124
Description: To achieve topical application, compounds were formulated as hypromellose gel. […] After that, skin was loaded with hypromellose gel with different antibiotics and cultured at 37° C. for 24 hours. After 24 hours incubation, the skin sample was homogenized and the supernatants were serially diluted and plated on agar plates, from which bacterial counts on the skin was calculated. […] 1‰ polymyxin B hypromellose gel was used as positive control.

A. baumannii = experiment: MIC of rifampicin on A. baumannii with bacterial sensitizer Compound D; assay type: cell-based; settings: Acinetobacter baumannii; antibiotic alone; read-out: minimum inhibitory concentration (MIC) on A. baumannii
Description: Bacteria were cultured with the antibiotic at various concentrations in the presence or absence of bacterial sensitizer, Compound D, for 24 hours at 37° C.

MRSA (ATCC 33592) = experiment: MIC determination and sensitization fold on MRSA; assay type: cell-based, methicillin-resistant Staphylococcus aureus; settings: MRSA towards the antibiotic
[5] = test system: mcr-1 over-expressing E. coli strains; experiment: microbe, parasite or virus in culture; assay type: cell-based; settings: for MIC: Escherichia coli
MRSA and E. coli = experiment: Composition of mixed MRSA and E. coli under antibiotic pressure; assay type: cell-based; settings: trovafloxacin 16 ng/ml
Description: FIG. 11 contains graphs showing that MD-108 can change the composition between MRSA and E. coli (Panel A) or MRSA and B. subtilis (Panel B) when the bacteria strains are under the same antibiotic pressure.
As a proof of concept, the relative ratio of E. coli and MRSA or B. subtilis and MRSA was measured with and without MD-108 (FIGS. 11A and B). […] When supplied with 1.5 μg/ml MD-108 and 8 ng/ml trovafloxacin, the MRSA inhibition was achieved, leaving E. coli as the dominant species (89% of the bacteria population).

HEK293 cells = experiment: Cytotoxicity on mammalian cells (CCK-8), HEK293; assay type: cell-based
Outline: (§1)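 Cells seeded a day ahead to ~80% confluency, exposed to varied compound concentrations for 24 h at 37° C, 5% CO2. CCK-8 added for a further 2 h and OD 450 nm read; viability expressed as percent of untreated control.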

NIH3T3 cells = experiment: Cytotoxicity on mammalian cells (CCK-8), NIH3T3; assay type: cell-based; settings: 3T3 cell line; 24 h
Outline: as §1

E. coli [6] = experiment: Lysozyme assay (outer membrane disruption); assay type: cell-based; settings: 50 μg/ml lysozyme, 50 μg/ml sensitizer, 10 min
Description: Lysozyme assay to evaluate the disruption of Gram-negative bacteria out membrane by bacterial sensitizers. Lysozyme assay was performed based on literature reported method. E. coli was cultured in Mueller Hinton II cation-adjusted broth for overnight, centrifuged at 3000 g for 10 min, washed with HEPES buffer (pH=7.2) and then centrifuged again to obtain bacteria pallet. The pallet was then gently resuspended in HEPES buffer with 5 mM NaCN to obtain an E. coli suspension with OD600 between 0.8˜1.0. On a 96-well plate, each well was supplied with 100 μl lysozyme solution (100 μg/ml) containing 50 or 100 μg/ml bacterial sensitizers in HEPES buffer. To each well was added 100 μl E. coli suspension. The final concentration of lysozyme was 50 μg/ml. The plate was incubated at room temperature for 10 min and the OD600 was recorded. E. coli was also incubated with bacterial sensitizers in the absence of lysozyme to test if bacterial sensitizers would directly induce bacterial lysis. E. coli that was incubated with lysozyme alone or E. coli without any treatment were also used as negative control.

[7] = test system: E. coli (lipid A part of LPS); experiment: Dansyl-PMBN displacement assay; assay type: binding; settings: E. coli with 10 μM Dansyl-PMBN; sensitizer 0 to 200 μM
Description: Panel (C) depicts a Dansyl-PMBN displacement assay. […] The fluorescent intensity of 10 μM Dansyl-PMBN in HEPES buffer was recorded as baseline F0. Fluorescent intensity/%=(F1−Fx)/(F1−F0). […] All results are triplicates.
Dansyl-PMBN displacement assay. Dansyl-PMBN was synthesized according to literature procedure. Dansyl-PMBN was dissolved in H2O to make 500 μM stock. Bacterial sensitizers were dissolved in ethanol to make 10 mM stock solutions. […] The E. coli stock was centrifuged at 3000 g for 10 min, washed with HEPES buffer (pH=7.2) and then centrifuged again to obtain bacteria pallet. The pallet was then gently resuspended in HEPES buffer to obtain a E. coli suspension with OD600 about 0.3. The experiment was performed on 96-well plates. Each well was supplied with 100 μl coli suspension with 10 μM Dansyl-PMBN, then to each well, different concentrations of bacterial sensitizers were added to achieve a final concentration ranging from 0 to 200 μM.
Mg^2+ can bridge between adjacent lipid A and enhance the membrane integrity. […] This phenomenon was also observed on MD-100. The culture medium for E. coli is Muller Hinton Broth (Cation adjusted), which already has at least 0.5 mM Mg^2+, so the “zero concentration point of Mg^2+” in FIG. 4 represents the amount of exogenous Mg^2+, not the total Mg^2+ in the culture medium. […] A fluorescent conjugate of a polymyxin-B derivative (Dansyl-PMBN, Scheme 3), which would show increased fluorescent intensity after binding to the lipid A part of LPS, was used to further probe this issue. In the presence of another component that can also binding to lipid A, Dansyl-PMBN would be replaced, leading to decreased fluorescent intensity.

[8] = E. coli, rifampicin, compound at 25 μM
[9] = E. coli towards the antibiotic, MD-124 5 μg/ml
[10] = A. baumannii, checkerboard assay

N=C(N)c1ccc(OCc2cccc(COc3ccc(C(=N)N)cc3)c2)cc1 [DB2559, 1,3-Bis {(4-amidino)-phenoxymethyl}-benzene dihydrochloride]
CC50 [1]: 100 µM | Sensitization fold (E. coli (ATCC 25922); [8]): 8-fold at 25 μM; | Sensitization fold (E. coli (ATCC 25922); E. coli, rifampicin, compound at 50 μM): 16-fold at 50 μM; | MIC (E. coli (ATCC 25922); ATCC25922, 24 h): 100 µM | Sensitization fold (B. subtilis; B. subtilis, compound at 6 μM): 4-fold at 6 μM | Sensitization fold (B. subtilis; B. subtilis, compound at 12 μM): 8-fold at 12 μM; | MIC (B. subtilis; Bacillus subtilis, 24 h, B. subtilis, compound alone, read-out: MIC): 25 µM | MIC (M. smegmatis): 12 µM

CO[C@@H]1[C@@H](OC(N)=O)[C@@H](O)[C@H](Oc2ccc3c(O)c(NC(=O)c4ccc(O)c(CC=C(C)C)c4)c(=O)oc3c2C)OC1(C)C [Novobiocin, reference compound]
Sensitization fold (E. coli (ATCC 25922); [9]): 64 fold | MIC of AB with MD-124 (E. coli (ATCC 25922); E. coli): 1.6 µg/mL | MIC (E. coli (ATCC 25922); ATCC25922, 24 h, E. coli (wild type), antibiotic alone, read-out: MIC of AB only): 100 µg/mL | sensitization fold with 5.5 μg/ml DB2560 (B. subtilis): 4 fold | Sensitization fold with 5 μg/ml MD-124 [2]: 32 fold | FIC index between MD-124 and antibiotic [2, 10]: 0.20 | MIC of AB with 5 μg/ml MD-124 (K. pneumoniae (43816); K. pneumoniae): 6.4 µg/mL | Sensitization fold with 5 μg/ml MD-124 (K. pneumoniae (43816)): 32 fold | Sensitization fold with 5 μg/ml MD-124 [3]: 32 fold | E. coli growth inhibition / bacterial load vs vehicle group (E. coli [4]): neither 4‰ (w/w) novobiocin nor 1.5‰ MD-124 themselves achieved significant E. coli growth inhibition

CO[C@H]1/C=C/O[C@@]2(C)Oc3c(C)c(O)c4c(O)c(c(/C=N/N5CCN(C)CC5)c(O)c4c3C2=O)NC(=O)/C(C)=C\C=C\[C@H](C)[C@H](O)[C@@H](C)[C@@H](O)[C@@H](C)[C@H](OC(C)=O)[C@@H]1C [Rifampicin]
MIC (A. baumannii): 5 µg/mL | Sensitization fold (E. coli (ATCC 25922); [9]): 516 fold | fractional inhibitory concentration (FIC) index between MD-124 and antibiotic (E. coli (ATCC 25922); E. coli, checkerboard assay): 0.09 | MIC (E. coli (ATCC 25922); ATCC25922, E. coli, with ~10 μg/ml MD-124, read-out: MIC of rifampicin (checkerboard assay)): 0.0006 µg/mL | FIC index between DB2560 and antibiotic (B. subtilis; B. subtilis): 0.11 | MIC of antibiotic in the presence of 5.5 μg/ml of DB2560 (B. subtilis; B. subtilis): 0.037 µg/mL | sensitization fold with 5.5 μg/ml DB2560 (B. subtilis): 256 fold | sensitization fold with 2.7 μg/ml DB2560 (MRSA (ATCC 33592)): 32 fold | Sensitization fold with 5 μg/ml MD-124 [2]: 128 fold | FIC index between MD-124 and antibiotic [2, 10]: 0.14 | MIC ([2]; Acinetobacter baumannii, ATCC17978, A. baumannii, checkerboard assay, read-out: MIC of rifampicin with 7 pg/ml of the sensitizer (MD-124)): 0.01 µg/mL | FIC index between MD-124 and antibiotic (K. pneumoniae (43816); K. pneumoniae): 0.15 | MIC of AB with 5 μg/ml MD-124 (K. pneumoniae (43816); K. pneumoniae): 0.016 µg/mL | Sensitization fold with 5 μg/ml MD-124 (K. pneumoniae (43816)): 252 fold | MIC ([3]; Escherichia coli, read-out: MIC of rifampicin with 10 μg/ml MD-124, NDM-1 expressing E. coli): 0.012 µg/mL | FIC index between MD-124 and antibiotic ([3]; NDM-1 expressing E. coli): 0.09 | Sensitization fold with 5 μg/ml MD-124 [3]: 516 fold | MIC ([5]; mcr-1 over-expression E. coli strain (MIC of polymyxin B 30 μg/ml), read-out: MIC of AB only): 5 µg/mL | MIC ([5]; read-out: MIC of AB with 5 μg/ml MD-124, mcr-1 over-expression E. coli strain (MIC of polymyxin B 30 μg/ml)): ≤ 0.2 µg/mL | MIC ([5]; strain mcr-1 A, read-out: MIC of Rif only): 5 µg/mL | MIC ([5]; strain mcr-1 B, read-out: MIC of Rif only): 5 µg/mL | FIC index between MD-124 and antibiotic ([5]; mcr-1 expressing E. coli): 0.37 | MIC of AB with 5 μg/ml MD-124 ([5]; mcr-1 over-expression E. coli strain (MIC of polymyxin B 30 μg/ml)): 0.16 µg/mL | Sensitization fold with 5 μg/ml MD-124 ([5]; mcr-1 over-expression E. coli strain towards the antibiotic): 32 fold

N=C(N)c1ccc(OCc2ccc(-c3ccc(C(=N)N)cc3)cc2)cc1 [DB2542]
CC50 [1]: 100 µM | MIC (E. coli (ATCC 25922); ATCC25922, 24 h, E. coli, compound alone, read-out: MIC): 50 µM

N[C@@H]1[C@H]2CN(c3nc4c(cc3F)c(=O)c(C(=O)O)cn4-c3ccc(F)cc3F)C[C@@H]12 [Trovafloxacin, reference compound]
Sensitization fold (E. coli (ATCC 25922); [9]): 32 fold | MIC of AB with MD-124 (E. coli (ATCC 25922); E. coli): 0.0015 µg/mL | sensitization fold with 5.5 μg/ml DB2560 (B. subtilis): 8 fold | sensitization fold with 2.7 μg/ml DB2560 (MRSA (ATCC 33592)): 16 fold | Sensitization fold with 5 μg/ml MD-124 [2]: 2 fold | Sensitization fold with 5 μg/ml MD-124 [3]: 32 fold | MRSA share of the bacteria population (MRSA and E. coli): 78%

Cc1cc(COc2ccc(NC(=N)N)cc2)cc(COc2ccc(NC(=N)N)cc2)c1 [MD-125, 1,1′-((((5-methyl-1,3-phenylene)bis(methylene))bis(oxy))bis(4,1-phenylene)) diguanidine di(trifluoroacetate)]
CC50 [1]: 100 µM | Sensitization fold (E. coli (ATCC 25922); 10 μM compound, rifampicin as the antibiotic (Table 6)): 8 fold | Sensitization fold (E. coli (ATCC 25922); E. coli, rifampicin, compound at 10 μM): 8-fold at 10 μM | Sensitization fold (E. coli (ATCC 25922); [8]): 32-fold at 25 μM | MIC (E. coli (ATCC 25922); ATCC25922, 24 h): 100 µM | CC50 (HEK293 cells; HEK293 cell line, 24 h): 100 µM | pIC50 (HEK293 cells; Homo sapiens, HEK293): 4.00 | CC50 (NIH3T3 cells): 100 µM

N=C(N)c1ccc(OCCCCCOc2ccc(C(=N)N)cc2)cc1 [pentamidine, reference compound]
Sensitization fold (E. coli (ATCC 25922); E. coli, rifampicin, 20 μg/ml bacterial sensitizer): 4 fold | bacterial lysis by lysozyme in the presence of sensitizer (E. coli [6]): led to bacterial lysis | displacement of Dansyl-PMBN (fluorescent intensity) [7]: able to displace Dansyl-PMBN although not as much as MD-124
